Results reported in ChEMBL document CHEMBL3885881, “DrugMatrix”.

Organism: Rattus norvegicus
Assay: DrugMatrix - Regimen: Daily Repeat
Format: toxicity, organism-based, Sprague-Dawley
Parameters: regimen Daily Repeat, gender Male, age 6-8 weeks
Conditions: in vivo, po, route oral GAVAGE, vehicle 100 % WATER; for ABSOLUTE BASOPHIL / ABSOLUTE EOSINOPHIL / ABSOLUTE LYMPHOCYTE / ABSOLUTE MONOCYTE / ABSOLUTE SEGMENTED NEUTROPHIL / BASOPHIL / EOSINOPHIL / ERYTHROCYTE COUNT / HEMATOCRIT / HEMOGLOBIN / LEUKOCYTE COUNT / LYMPHOCYTE / MEAN CORPUSCULAR HEMOGLOBIN / MEAN CORPUSCULAR HEMOGLOBIN CONCENTRATION / MEAN CORPUSCULAR VOLUME / MONOCYTE / NEUTROPHIL / NUCLEATED RED BLOOD CELLS / PLATELET COUNT: tissue Blood; for ALANINE AMINOTRANSFERASE / ALBUMIN / ALKALINE PHOSPHATASE / ASPARTATE AMINOTRANSFERASE / BLOOD UREA NITROGEN / CARBON DIOXIDE / CHLORIDE / CHOLESTEROL / CREATINE PHOSPHOKINASE / CREATININE / GLUCOSE / LACTATE DEHYDROGENASE / LIPASE / PHOSPHORUS / POTASSIUM / SODIUM / TOTAL BILIRUBIN / TOTAL PROTEIN / URIC ACID: tissue Plasma
[1] = 0 mg/kg, 72 h, dose level Control, time 3 day
[2] = 0 mg/kg, 120 h, dose level Control, time 5 day
[3] = 120 mg/kg, 72 h, dose level Low, time 3 day

Nc1ccc(S(=O)(=O)Nc2ccnn2-c2ccccc2)cc1 [SULFAPHENAZOLE]
ABSOLUTE BASOPHIL [1]: 0 CELLS/uL
ABSOLUTE EOSINOPHIL [1]: 20.17 CELLS/uL
ABSOLUTE LYMPHOCYTE [1]: 12371.67 CELLS/uL
ABSOLUTE MONOCYTE [1]: 166 CELLS/uL
ABSOLUTE SEGMENTED NEUTROPHIL [1]: 1292.17 CELLS/uL
BASOPHIL [1]: 0%
EOSINOPHIL [1]: 0.17%
ERYTHROCYTE COUNT [1]: 5.46 x10E6/uL
HEMATOCRIT [1]: 34.38%
HEMOGLOBIN [1]: 13.32 G/DL
LEUKOCYTE COUNT [1]: 13.85 x10E3/uL
LYMPHOCYTE [1]: 88.5%
MEAN CORPUSCULAR HEMOGLOBIN [1]: 24.42 pg
MEAN CORPUSCULAR HEMOGLOBIN CONCENTRATION [1]: 38.7 G/DL
MEAN CORPUSCULAR VOLUME [1]: 63.07 fL
MONOCYTE [1]: 1.17%
NEUTROPHIL [1]: 10.17%
NUCLEATED RED BLOOD CELLS [1]: 0.17 /100WBC
PLATELET COUNT [1]: 1193.5 x10E3/uL
ALANINE AMINOTRANSFERASE [1]: 54.5 u/L
ALBUMIN [1]: 4.02 G/DL
ALKALINE PHOSPHATASE [1]: 346.5 u/L
ASPARTATE AMINOTRANSFERASE [1]: 103.17 u/L
BLOOD UREA NITROGEN [1]: 16.5 mg/dL
CARBON DIOXIDE [1]: 29.83 mmol/L
CHLORIDE [1]: 99.5 MEQ/L
CHOLESTEROL [1]: 72.5 mg/dL
CREATINE PHOSPHOKINASE [1]: 532.5 u/L
CREATININE [1]: 0.18 mg/dL
GLUCOSE [1]: 168.5 mg/dL
LACTATE DEHYDROGENASE [1]: 536.5 u/L
LIPASE [1]: 11.17 u/L
PHOSPHORUS [1]: 11.48 mg/dL
POTASSIUM [1]: 5.95 MEQ/L
SODIUM [1]: 140.5 MEQ/L
TOTAL BILIRUBIN [1]: 0.18 mg/dL
TOTAL PROTEIN [1]: 5.77 G/DL
URIC ACID [1]: 1.42 mg/dL
ABSOLUTE BASOPHIL [2]: 0 CELLS/uL
ABSOLUTE EOSINOPHIL [2]: 22.83 CELLS/uL
ABSOLUTE LYMPHOCYTE [2]: 12202.83 CELLS/uL
ABSOLUTE MONOCYTE [2]: 158 CELLS/uL
ABSOLUTE SEGMENTED NEUTROPHIL [2]: 1283 CELLS/uL
BASOPHIL [2]: 0%
EOSINOPHIL [2]: 0.17%
ERYTHROCYTE COUNT [2]: 5.88 x10E6/uL
HEMATOCRIT [2]: 36.62%
HEMOGLOBIN [2]: 14.07 G/DL
LEUKOCYTE COUNT [2]: 13.67 x10E3/uL
LYMPHOCYTE [2]: 89.5%
MEAN CORPUSCULAR HEMOGLOBIN [2]: 23.95 pg
MEAN CORPUSCULAR HEMOGLOBIN CONCENTRATION [2]: 38.43 G/DL
MEAN CORPUSCULAR VOLUME [2]: 62.28 fL
MONOCYTE [2]: 1.17%
NEUTROPHIL [2]: 9.17%
NUCLEATED RED BLOOD CELLS [2]: 0.17 /100WBC
PLATELET COUNT [2]: 1198 x10E3/uL
ALANINE AMINOTRANSFERASE [2]: 51 u/L
ALBUMIN [2]: 4.3 G/DL
ALKALINE PHOSPHATASE [2]: 343 u/L
ASPARTATE AMINOTRANSFERASE [2]: 89.83 u/L
BLOOD UREA NITROGEN [2]: 17.67 mg/dL
CARBON DIOXIDE [2]: 27.17 mmol/L
CHLORIDE [2]: 98.33 MEQ/L
CHOLESTEROL [2]: 82.5 mg/dL
CREATINE PHOSPHOKINASE [2]: 533.33 u/L
CREATININE [2]: 0.18 mg/dL
GLUCOSE [2]: 152.67 mg/dL
LACTATE DEHYDROGENASE [2]: 220.33 u/L
LIPASE [2]: 11.5 u/L
PHOSPHORUS [2]: 11.25 mg/dL
POTASSIUM [2]: 6.29 MEQ/L
SODIUM [2]: 140.53 MEQ/L
TOTAL BILIRUBIN [2]: 0.22 mg/dL
TOTAL PROTEIN [2]: 6.12 G/DL
URIC ACID [2]: 1.42 mg/dL
ABSOLUTE BASOPHIL [3]: 0 CELLS/uL
ABSOLUTE EOSINOPHIL [3]: 0 CELLS/uL
ABSOLUTE LYMPHOCYTE [3]: 13809.67 CELLS/uL
ABSOLUTE MONOCYTE [3]: 111 CELLS/uL
ABSOLUTE SEGMENTED NEUTROPHIL [3]: 1579.33 CELLS/uL
BASOPHIL [3]: 0%
EOSINOPHIL [3]: 0%
ERYTHROCYTE COUNT [3]: 5.26 x10E6/uL
HEMATOCRIT [3]: 32.3%
HEMOGLOBIN [3]: 13 G/DL
LEUKOCYTE COUNT [3]: 15.5 x10E3/uL
LYMPHOCYTE [3]: 88.67%
MEAN CORPUSCULAR HEMOGLOBIN [3]: 24.77 pg
MEAN CORPUSCULAR HEMOGLOBIN CONCENTRATION [3]: 40.33 G/DL
MEAN CORPUSCULAR VOLUME [3]: 61.43 fL
MONOCYTE [3]: 0.67%
NEUTROPHIL [3]: 10.67%
NUCLEATED RED BLOOD CELLS [3]: 0 /100WBC
PLATELET COUNT [3]: 1150 x10E3/uL
ALANINE AMINOTRANSFERASE [3]: 66 u/L
ALBUMIN [3]: 3.9 G/DL
ALKALINE PHOSPHATASE [3]: 348.67 u/L
ASPARTATE AMINOTRANSFERASE [3]: 94.33 u/L
BLOOD UREA NITROGEN [3]: 14 mg/dL
CARBON DIOXIDE [3]: 29.33 mmol/L
CHLORIDE [3]: 97.67 MEQ/L
CHOLESTEROL [3]: 74.67 mg/dL
CREATINE PHOSPHOKINASE [3]: 287.67 u/L
CREATININE [3]: 0.15 mg/dL
GLUCOSE [3]: 149.33 mg/dL
LACTATE DEHYDROGENASE [3]: 195.67 u/L
LIPASE [3]: 10 u/L
PHOSPHORUS [3]: 11.53 mg/dL
POTASSIUM [3]: 6.01 MEQ/L
SODIUM [3]: 140.83 MEQ/L
TOTAL BILIRUBIN [3]: 0.17 mg/dL
TOTAL PROTEIN [3]: 5.63 G/DL
URIC ACID [3]: 1.33 mg/dL
